Reference: patent US12103932B2, “Process for preparing substituted imidazo[4,5-c]pyrazoles” (Imam Abdulrahman Bin Faisal University, priority 2021, dated 2024)

Experiments:
Assay in all cases: Paper disk diffusion antibacterial test
Type in all cases: cell-based
[1] = test system: Staphylococcus epidermidis ATCC 12228
Experimental: (§1) In Vitro antimicrobial activity was evaluated using both gram-positive and gram-negative bacterial strains. The results reproduced here are exemplary and may include other microorganisms such as Escherichia coli, Listeria monocytogenes, Lactobacillus, yeast, vancomycin-resistant Enterococcus, molds, and spores. The in vitro antibacterial activity was evaluated for. gram-positive bacteria (Staphylococcus aureus ATCC 29213 and Staphylococcus epidermidis ATCC 12228) and gram-negative bacteria (Pseudomonas aeruginosa ATCC 27853) obtained from King Fahd Hospital, AlKhobar, Saudi Arabia.
(§2) Antimicrobial activity of three imidazopyrazole derivatives (1), (2) and (3) were evaluated qualitatively by paper disk diffusion method [CLSI.; Approved Standard, 11th ed.; CLSI document M02-A11; Clinical and Laboratory Standards Institute: Wayne, PA, USA, 2012, incorporated herein by reference in its entirety]. The three chemical materials i.e. compounds (1), (2) and (3) were prepared in different concentrations as follows: 0.01, 0.02, 0.03, 0.05, and 0.1 g/mL in dimethyl sulfoxide (DMSO) and tested directly. Paper discs measured 6 mm in diameter were soaked separately with 100 μL of the chemical materials and were left to dry. Bacterial inoculums were prepared from previous cultures in Muller-Hinton broth. The bacterial cell suspension turbidity was adjusted to a 0.5 McFarland standard, which represented approximately 1-2×10^8 colony-forming units (CFU)/mL using a Biomerieux DensiCHEK plus meter device (Missouri, MO, USA). Bacterial inoculums at 0.5 mL were transferred to petri plates under sterilized conditions. Melted Muller-Hinton agar at approximately 50° C. was poured over the inoculums, and to ensure even distribution of the inoculums, the plates were rotated neatly, then cultures were left to harden for 5 min. Then, previously prepared paper discs, saturated with chemicals, were transferred, using sterilized forceps, to the surface of petri plates that contained the bacterial cultures. Gentamicin (CN10 μg), aminoglycosides antibiotic was used as the positive control and DMSO was used as the negative control. The petri plates were placed in the refrigerator (General Electric, Medford, MA, USA) to allow diffusion of the chemicals into the agar for an hour. Then the petri plates were incubated at 37° C. for 24 h. After the incubation period ended, the area of inhibition around the discs was measured with a ruler. Three replicants were made to ensure the accuracy of the experiment.

[2] = test system: Pseudomonas aeruginosa ATCC 27853
Experimental: as §1, §2

[3] = test system: Staphylococcus aureus ATCC 29213
Experimental: as §1, §2

[4] = 0.05 g/mL in DMSO, 6 mm paper disc, 37° C. 24 h
[5] = 0.1 g/mL in DMSO, 6 mm paper disc, 37° C. 24 h

Molecule: CC1=NN(c2ccccc2)C2=NC(=S)NC12 (stereo not shown) [(1), 3-Methyl-1-Phenyl-3a,4-Dihydro Imidazo(4,5-c) Pyrazole-5(1H)-Thione]
- zone of inhibition (mm) means ± SD [1, 4]: 8.3 ± 0.6 mm
- zone of inhibition (mm) means ± SD [1, 5]: 8.3 ± 0. mm
- zone of inhibition (mm) means ± SD [2, 4]: 10.0 ± 1.0 mm
- zone of inhibition (mm) means ± SD [2, 5]: 11.0 ± 1.0 mm
- zone of inhibition (mm) means ± SD [3, 4]: 7.7 ± 0.6 mm
- zone of inhibition (mm) means ± SD [3, 5]: 9.0 ± 1.0 mm

Molecule: CC1=NN(c2ccccc2)C2=NC(NC(N)=S)=NC12 (stereo not shown) [(2), 1-(3-Methyl-1-Phenyl-1,3a-Dihydroimidazo[4,5-c] Pyrazol-5-yl) Thiourea]
- zone of inhibition (mm) means ± SD [1, 4]: 8.3 ± 0.6 mm
- zone of inhibition (mm) means ± SD [1, 5]: 9.3 ± 0.6 mm
- zone of inhibition (mm) means ± SD [2, 4]: 7.7 ± 0.6 mm
- zone of inhibition (mm) means ± SD [2, 5]: 8.3 ± 0.6 mm
- zone of inhibition (mm) means ± SD [3, 4]: 18.0 ± 0.0 mm
- zone of inhibition (mm) means ± SD [3, 5]: 18.7 ± 0.6 mm
- area of inhibition zone compared with positive control gentamicin ([3]; at the concentrations 0.05 g/mL and 0.01 g/mL, gentamicin CN10 μg): equal to gentamicin

Molecule: CCOC(=O)CSC1=NC2C(C)=NN(c3ccccc3)C2=N1 (stereo not shown) [(3), Ethyl 2-((3-Methyl-1-Phenyl-1,3adihydroimidazo[4,5-c] Pyrazol-5-yl)thio) Acetate]
- zone of inhibition (mm) means ± SD [1, 4]: 7.3 ± 0.6 mm
- zone of inhibition (mm) means ± SD [1, 5]: 8.7 ± 0.6 mm
- zone of inhibition (mm) means ± SD [2, 4]: 7.3 ± 0.6 mm
- zone of inhibition (mm) means ± SD [2, 5]: 7.3 ± 0.6 mm
- zone of inhibition (mm) means ± SD [3, 4]: 7.3 ± 0.6 mm
- zone of inhibition (mm) means ± SD [3, 5]: 8.7 ± 0.6 mm

Molecule: Gentamicin [reference compound]
- zone of inhibition (mm) means ± SD ([1]; positive control, CN10 μg disc): 21.3 ± 1.2 mm
- zone of inhibition (mm) means ± SD ([2]; positive control, CN10 μg disc): 20.7 ± 1.2 mm
- zone of inhibition (mm) means ± SD ([3]; positive control, CN10 μg disc): 18.7 ± 1.5 mm
